Results from PMC9139002, “Naphthoquinone as a New Chemical Scaffold for Leishmanicidal Inhibitors of Leishmania GSK-3” (Biomedicines, 2022).
Where two headings read alike, the source gives them in different places.

Columns and labels:
LdGSK-3s [1] = target: T1, LdGSK-3s (Leishmania donovani, UniProt A6N857); assay: Inhibition of recombinant LdGSK-3s with Kinase Glo; assay type: biochemical; conditions: for IC50: recombinant LdGSK-3s, Kinase Glo
Protocol: (§1) Extraction, purification, and evaluation of compounds against recombinant LdGSK-3s was carried out as described. For that, a recombinant LdGSK-3s with a His-tag was obtained as inclusion bodies, that were further solubilized, and purified by chromatography first on a Ni^2+ column an in a second step on a DEAE (diethylaminoethyl) ionic exchange column. Samples were made in duplicate, and assays were repeated at least three times. IC50 (inhibitory concentration that decreases enzymatic activity by 50%) was calculated using the statistical module of SigmaPlot v11.0 software. Evaluation of compounds against hGSK-3β was performed using human recombinant GSK-3β purchased from Millipore as described previously. Compounds were prepared as a 10 mM stock solution in DMSO.

[2] = tested on: L. donovani promastigotes; assay: Leishmanicidal activity on promastigotes (MTT reduction), Table 1; assay type: cell-based; conditions: Leishmania donovani
[3] = tested on: L. infantum promastigotes; assay: Leishmanicidal activity on promastigotes (MTT reduction), Table 2 and Table S1; assay type: cell-based, Leishmania infantum
Protocol: (§2) Both activities were assessed by inhibition of MTT (3-(4,5-dimethylthiazol-2-yl)-2,5-diphenyltetrazolium bromide) reduction, as described in [34]. Samples were made in triplicate and assays were repeated at least twice. DMSO content in the medium was adjusted to 0.25% v/v (final concentration), regardless of the final concentration of the drug, and for the control, the untreated parasites. ICx (inhibitory concentration that inhibits parasite growth or enzymatic activity by x%) was calculated using the statistical module of SigmaPlot v11.0 software.
In a step ahead, the leishmanicidal activity of the compounds on L. pifanoi axenic amastigotes and L. infantum promastigotes was evaluated. Axenic Leishmania amastigotes afford the appraisal of the leishmanicidal activity without the constrains imposed on the access of the compounds to intracellular amastigotes within the parasitophorous vacuole, as well as to preclude the interference of the compounds via host–parasite interface in the final activity. For that, the axenic line of L. pifanoi amastigotes belonging to the mexicana complex was chosen, as in this species the infectivity, antigenicity, and metabolic identity between axenic and intracellular amastigotes have been consistently validated.

[4] = tested on: L. pifanoi axenic amastigotes; assay: Leishmanicidal activity on axenic amastigotes (MTT reduction); assay type: cell-based, Leishmania pifanoi
[5] = tested on: mouse peritoneal macrophages (MPM); assay: Cytotoxicity on mouse peritoneal macrophages (MTT reduction); assay type: cell-based; conditions: for IC50: mouse peritoneal macrophages, MTT reduction; for Selectivity Index (SI): IC50 MPM/IC50 axenic amastigotes
Protocol: Leishmania parasites were collected at late exponential growth phase by centrifugation at 1610× g at 4 °C. Elicited mouse peritoneal macrophages (MPM) were obtained from 8-week-old Balb/c mice through i.p. injection with 1 mL of 10% thioglycolate medium 72 h before extraction. Macrophages were obtained by peritoneal washing (10 mL PBS, 4 °C).
as §2

[6] = tested on: L. donovani promastigotes; assay: Sub G0/G1 population (propidium iodide flow cytometry); assay type: cell-based, Leishmania donovani; conditions: 72 h
Protocol: L. donovani promastigotes (2 × 10^6 cells/mL) in RPMI-HIFCS were incubated with each compound in 24-well plates for 72 h at 26 °C by duplicate. Next, compounds were removed by washing with HBSS-Glc (15,700× g, 4 min, 4 °C) and cells were resuspended in […] of HBSS-Glc, fixed and permeabilized by addition of 200 μL 70% cold EtOH and incubated overnight at 4 °C. Ethanol was removed by centrifugation and cellular pellets washed with HBSS-Glc. Finally, cells were resuspended in 500 μL HBSS-Glc with 20 μg/mL propidium iodide (PI) and 3 mg/mL Ribonuclease A, and incubated in darkness at r. t. for 30 min. PI fluorescence was measured in a Coulter XL EPICS flow cytometer (Beckman Coulter, Nyon, Switzerland) (λEXC = 488 nm, λEM = 620 nm).
Each assay was repeated at least twice. Untreated cells were used as control for a standard cell cycle histogram, and Miltefosine (hexadecylphosphocholine) (15 μM) was used as control for an apoptosis-inducing respiratory inhibitor [51].
Parasites were incubated with the corresponding drug for 72 h, followed by EtOH permeabilization, incubated with 3 mg/mL Ribonuclease A and stained with 20 μg/mL of propidium iodide (PI) before cytofluorometric analysis. (λEXC = 488 nm, λEM = 620 nm). The percentage of subG0/G1 population (enclosed within green bars) stands for degraded chromatin, associated with the apoptotic-like process. Miltefosine (hexadecylphosphocholine, HePc) at 15 μM was added as a control for induction of apoptosis.

hGSK-3β = target: T2, hGSK-3β (Homo sapiens, UniProt P49841); assay: Inhibition of human recombinant GSK-3β; assay type: biochemical; conditions: read-out: percentage of inhibition of hGSK-3β
T2 construct: purchased Millipore
T2 sequence (P49841 whole entry): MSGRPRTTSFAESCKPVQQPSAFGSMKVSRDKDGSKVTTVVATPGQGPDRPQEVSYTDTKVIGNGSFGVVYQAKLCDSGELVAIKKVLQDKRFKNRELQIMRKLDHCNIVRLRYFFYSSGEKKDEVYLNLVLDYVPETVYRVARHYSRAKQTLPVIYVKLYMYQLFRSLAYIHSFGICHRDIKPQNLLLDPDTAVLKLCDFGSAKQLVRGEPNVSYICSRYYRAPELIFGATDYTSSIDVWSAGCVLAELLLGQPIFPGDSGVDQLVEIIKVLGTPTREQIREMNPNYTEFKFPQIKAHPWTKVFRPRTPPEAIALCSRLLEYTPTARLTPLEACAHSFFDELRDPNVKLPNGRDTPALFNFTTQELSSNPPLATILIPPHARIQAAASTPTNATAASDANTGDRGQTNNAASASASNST
Protocol: as §1

[7] = tested on: intracellular L. pifanoi amastigotes; assay: Parasite load of macrophages infected with mCherry-L. pifanoi amastigotes; assay type: cell-based, Leishmania pifanoi
[8] = tested on: L. donovani promastigotes; assay: Mitochondrial membrane depolarization (Rhodamine 123 accumulation); assay type: cell-based, Leishmania donovani; conditions: 4 h; for decrease of Rh123 fluorescence: 2 μM (IC80)
LdGSK-3s [9] = target: T1, LdGSK-3s; assay: Mechanism of inhibition of LdGSK-3s (kinetics versus ATP, Eadie–Scatchard plot); assay type: biochemical; conditions: ATP 1 to 10 μM, inhibitor 2.5 and 5 μM, GS2 25 μM
Protocol: Briefly, kinetic experiments were carried out at four different concentrations of ATP (10, 5, 2.5, and 1 µM), in the absence or presence of the inhibitors, at either 2.5 or 5 µM, while the phospho-glycogen synthase peptide-2 (GS2) substrate was kept constant at 25 µM. The data were processed using Microsoft Excel software and results presented as Eadie–Scatchard plots (v vs. v/[ATP]).

T1 sequence (A6N857 entry or part of it): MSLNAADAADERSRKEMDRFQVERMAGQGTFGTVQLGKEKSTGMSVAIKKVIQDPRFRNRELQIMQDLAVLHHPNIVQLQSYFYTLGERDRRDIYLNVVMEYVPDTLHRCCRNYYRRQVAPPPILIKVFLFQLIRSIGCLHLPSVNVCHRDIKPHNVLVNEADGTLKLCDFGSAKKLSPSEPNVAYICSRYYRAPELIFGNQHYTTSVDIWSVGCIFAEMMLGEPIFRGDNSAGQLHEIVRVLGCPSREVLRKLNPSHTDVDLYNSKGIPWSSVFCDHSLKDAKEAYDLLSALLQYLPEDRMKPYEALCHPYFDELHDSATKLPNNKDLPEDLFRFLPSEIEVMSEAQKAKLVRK

| Compound | IC50 (LdGSK-3s [1]) | IC50 ([3]; Leishmania infantum) | IC50 ([4]; Leishmania pifanoi) | Selectivity Index (SI) [5] | IC50 ([5]; Peritoneal macrophage) | melting point | other results |
| --- | --- | --- | --- | --- | --- | --- | --- |
| O=C1C=C(O)C(=O)c2c(O)c(Cl)c(Cl)c(O)c21 [MBC-10] | ~10 µM | 10.5 ± 1.2 µM | 11.2 ± 2.5 µM |  |  |  | inhibition at 10 µM (LdGSK-3s [1]; at 10 μM): 45.7%; IC50 [2]: 10.5 ± 1.2 µM |
| N-(1,4-Naphthoquinone-2-yl) phenylacetamide [Compound 20] | > 10 µM |  |  |  |  |  | IC50 [3]: 7.1 ± 2.1 µM; IC50 [4]: 3.2 ± 0.1 µM; IC50 [5]: 7.5 ± 0.6 µM |
| O=C1C(Cl)=C(NCc2ccc(Cl)cc2)C(=O)c2ccccc21 [Compound 11, 2-Chloro-3-((4-chlorobenzyl)amino)-1,4-naphthoquinone] | > 10 µM | > 25 µM | > 25 µM |  |  |  |  |
| CCOC(=O)NC1=CC(=O)c2ccccc2C1=O [Compound 17, Ethyl-(1,4-naphthoquinone-2-yl)carbamate] | > 10 µM | 4.5 ± 0.7 µM | 1.7 ± 0.1 µM | 2.5 | 4.2 ± 0.2 µM | 162 to 163 °C |  |
| N-(1,4-Naphthoquinone-2-yl)propionamide [Compound 19] | > 10 µM |  |  |  |  |  | IC50 [3]: 5.9 ± 1.8 µM; IC50 [4]: 1.8 ± 0.3 µM; IC50 [5]: 4.3 ± 0.3 µM |
| COc1ccc(COC(=O)NC2=C(Cl)C(=O)c3ccccc3C2=O)cc1 [Compound 4, 4-Methoxybenzyl-(3-chloro-1,4-naphthoquinone-2-yl)carbamate] | 4.1 ± 0.1 µM | 2.9 ± 0.2 µM | 3.7 ± 1.1 µM | 2.0 | 7.4 ± 0.8 µM | 137 to 147 °C |  |
| COC(=O)NC1=CC(=O)c2ccccc2C1=O [Compound 16, Methyl-(1,4-naphthoquinone-2-yl)carbamate] | > 10 µM | 4.1 ± 0.8 µM | 1.7 ± 0.2 µM | 2.2 | 3.8 ± 0.3 µM | 201 to 202 °C |  |
| CCCCCNC1=C(Cl)C(=O)c2ccccc2C1=O [Compound 7, 2-Chloro-3-(pentylamino)-1,4-naphthoquinone] | > 10 µM | 16.9 ± 0.4 µM | > 25 µM |  |  |  |  |
| CCCCCCCCCCCCCCCCOP(=O)([O-])OCC[N+](C)(C)C [HePc, hexadecylphosphocholine, reference compound] |  |  |  |  |  |  | percentage of subG0/G1 population ([6]; 15 μM, control for induction of apoptosis): 36.8 ± 1.1% |
| COC(=O)NC1=C(Cl)C(=O)c2ccccc2C1=O [MBC-132] | 2.5 ± 0.1 µM | 1.51 ± 0.02 µM | 0.51 ± 0.01 µM | 5.1 | 2.6 µM |  | inhibition at 10 µM (hGSK-3β): 19%; IC50 [2]: 1.51 ± 0.02 µM; decrease in parasite load ([7]; 1 μM): 39.1%; decrease in Rh123 accumulation ([8]; 3 μM (IC80)): ~70%; percentage of subG0/G1 population ([6]; 3 μM (IC80)): 63.2 ± 0.3% |
| COc1cc(COC(=O)NC2=C(Cl)C(=O)c3ccccc3C2=O)cc(OC)c1OC [Compound 5, 3,4,5-Trimethoxybenzyl-(3-chloro-1,4-naphthoquinone-2-yl)carbamate] | 4.5 ± 0.6 µM | 3.8 ± 1.9 µM | 3.6 ± 0.6 µM |  | 8.1 ± 1 µM |  |  |
| O=C1Nc2ccc(S(=O)(=O)O)cc2C1=C1Nc2ccccc2C1=NO [Indirubin-3′-monoxime-5-sulphonic acid, reference compound] | 2.4 µM |  |  |  |  |  |  |
| CCOC(=O)NC1=C(Cl)C(=O)c2ccccc2C1=O [Compound 1, Ethyl-(3-chloro-1,4-naphthoquinone-2-yl)carbamate] | 3.7 ± 0.3 µM | 1.54 ± 0.01 µM | 0.15 ± 0.4 µM | 20.6 | 3.1 ± 0.1 µM | 147 to 149 °C | inhibition at 10 µM (hGSK-3β): 30%; decrease of Rh123 fluorescence [8]: 33.0%; percentage of subG0/G1 population ([6]; 2 μM (IC80)): 54.0 ± 4.2%; mechanism of inhibition of LdGSK-3s (LdGSK-3s [9]): ATP competitive inhibitors |
| CC(C)(C)NC1=C(Cl)C(=O)c2ccccc2C1=O [Compound 8, 2-(tert-Butylamino)-3-chloro-1,4-naphthoquinone] | > 10 µM | 19.8 ± 3.6 µM | 17.8 ± 1.1 µM | 1.0 | 17 ± 0.3 µM |  |  |
| O=C1C(Cl)=C(NCc2ccccc2)C(=O)c2ccccc21 | > 10 µM | > 25 µM | > 25 µM |  |  |  |  |
| O=C1C(Cl)=C(Nc2ccc(Cl)cc2)C(=O)c2ccccc21 [Compound 12, 2-Chloro-3-((4-chlorophenyl)amino)-1,4-naphthoquinone] | > 10 µM | > 50 µM | > 50 µM |  |  |  |  |
| N-(1,4-Naphthoquinone-2-yl)acetamide [Compound 18] | > 10 µM |  |  |  |  |  | IC50 [3]: 4.5 ± 0.5 µM; IC50 [4]: 1.2 ± 0.1 µM; IC50 [5]: 4 ± 0.2 µM |
| O=C1C(Cl)=C(NC2CCCCC2)C(=O)c2ccccc21 [Compound 9, 2-Chloro-3-(cyclohexylamino)-1,4-naphthoquinone] | > 10 µM | > 25 µM | > 25 µM |  |  | 122 to 123 °C |  |
| CCCNC1=C(Cl)C(=O)c2ccccc2C1=O [Compound 6, 2-Chloro-3-(propylamino)-1,4-naphthoquinone] | > 10 µM | 19.1 ± 1.2 µM | > 25 µM |  |  |  |  |
| COc1cc(CNC2=C(Cl)C(=O)c3ccccc3C2=O)cc(OC)c1OC [Compound 10, 2-Chloro-3-((3,4,5-trimethoxybenzyl)amino)-1,4-naphthoquinone] | > 10 µM | > 50 µM | > 50 µM |  |  | 161 to 163 °C |  |
| CC(C)OC(=O)NC1=C(Cl)C(=O)c2ccccc2C1=O [Compound 2, Isopropyl-(3-chloro-1,4-naphthoquinone-2-yl)carbamate] | 2.5 ± 0.2 µM | 1.47 ± 0.02 µM | 0.4 ± 0.2 µM |  | 4.51 ± 0.3 µM |  | inhibition at 10 µM (hGSK-3β): 25%; decrease in parasite load ([7]; 2 μM): 76.3%; decrease of Rh123 fluorescence [8]: 26.4%; percentage of subG0/G1 population ([6]; 2 μM (IC80)): 59.6 ± 1.1%; mechanism of inhibition of LdGSK-3s (LdGSK-3s [9]): ATP competitive inhibitors |
| O=C(NC1=C(Cl)C(=O)c2ccccc2C1=O)OCc1ccccc1 [Compound 3, Benzyl-(3-chloro-1,4-naphthoquinone-2-yl)carbamate] | 2.8 ± 0.1 µM | 4.9 ± 0.2 µM | 4.7 ± 0.8 µM |  | 9.8 ± 0.2 µM |  | inhibition at 10 µM (hGSK-3β): 19% |
| CC(C)(C)NC(=O)NC1=C(Cl)C(=O)c2ccccc2C1=O [Compound 14, 1-(tert-Butyl)-3-(3-chloro-1,4-naphthoquinone-2-yl)urea] | > 10 µM | 1.4 ± 0.4 µM | 2.1 ± 0.6 µM | 0.6 | 1.3 ± 0.3 µM | 195 to 196 °C |  |
